Results published in patent US20240173296A1, “PHARMACEUTICAL COMPOSITION OF (S)-KETOROLAC AND PREPARATION METHOD THEREFOR” (NANJING HERON PHARMACEUTICAL SCIENCE AND TECHNOLOGY CO., …, priority 2021, published 2024).
In brackets after ≈: the same amount, converted by molar mass. Read-outs that look alike come from different tables or passages of the source.

Experiments:
[1] = standard animal model of analgesic activity; cited from earlier work
[2] = Pharmacokinetic testing after single intravenous administration in beagle dogs; format: in vivo; settings: for AUC(0-inf) / AUC(0-t) / half-life / MRT last / clearance / Vd: dog, mean ± standard deviation; for AUC(0-inf) / AUC(0-t) / half-life / MRT last: plasma analyte = label; for MRT last: read-out: MRT0-t; for clearance / Vd: plasma; for Vd: read-out: Vss
Protocol: (§1) Representative batches of lyophilized powder injection of (S)-ketorolac described in the present application were selected to examine the drug metabolism in vivo of beagle dogs and cynomolgus monkeys. The mode of administration was single intravenous administration. The concentration of (S)-ketorolac and (R)-ketorolac in plasma samples was measured by LC-MS/MS, and the blood drug concentration-time curve was plotted to obtain the main pharmacokinetic parameters and examine the chiral transformation of (S)-ketorolac and (R)-ketorolac in animals.

[3] = Solubility of (S)-ketorolac in solvents; format: physicochemical
[4] = Solubility of (S)-ketorolac in phosphate buffer solutions with different pH (Test Example 2); format: physicochemical; settings: 25 °C, aqueous buffer, thermodynamic from solid, read-out: Saturation solubility at 25° C.
Protocol: (§2) Phosphate buffer solutions with a pH range of 6.5 to 7.8 were prepared with reference to Chinese Pharmacopoeia (2020 edition). The appropriate amount of (S)-ketorolac (free acid) was added to each phosphate buffer to prepare mixtures of about 20 mg/ml. Each solution was placed in an air bath shaker and shaken at 25° C. for 24 hours, during which the dissolution of (S)-ketorolac in each mixture was observed. The remaining samples were reserved at 25° C. and 40° C., and the formation of isomers was detected after 2 days and 30 days, as shown in Table 2.

in vivo = settings: cynomolgus monkey, iv
Protocol: as §1

[5] = Optical stability of (S)-ketorolac in phosphate buffer solutions with different pH values (Test Example 2); format: physicochemical
Protocol: as §2

[6] = single intravenous (S)-ketorolac 0.16 mg/kg
[7] = single intravenous (S)-ketorolac 3.2 mg/kg

In the case of `O=C(c1ccccc1)c1ccc2n1CCC2C(=O)O` (racemic) [ketorolac tromethamine], the “analgesic activity relative to that of Aspirin” value [1] is listed as 800 times.

For `O=C(c1ccccc1)c1ccc2n1CC[C@H]2C(=O)O` [(R)-ketorolac], the AUC(0-inf) [2, 6] was 79.2 ± 57 ng·h/mL, the AUC(0-t) [2, 6] was 11.7 ± 1.21 ng·h/mL and the half-life [2, 6] was 22.7 ± 16.8 h. For the same compound, the MRT last [2, 6] was 3.07 ± 0.144 h, the AUC(0-t) [2, 7] was 724 ± 259 ng·h/mL and the MRT last [2, 7] was 3.52 ± 0.33 h. For the same compound, the “Chiral transformation rate = (AUC0-t)R/[(AUC0-t)S + (AUC0-t)R] × 100” value [2, 6] was 2.10% and the “Chiral transformation rate = (AUC0-t)R/[(AUC0-t)S + (AUC0-t)R] × 100” value [2, 7] was 1.71%.

With `O=C(c1ccccc1)c1ccc2n1CC[C@@H]2C(=O)O` [(S)-ketorolac] the “solubility in anhydrous ethanol” value ([3]; anhydrous ethanol) was “sparingly soluble”, the solubility in dichloromethane ([3]; dichloromethane) was “slightly soluble” and the solubility in dimethylformamide ([3]; dimethylformamide) was “freely soluble”. The solubility in methanol ([3]; methanol) was “soluble”, the solubility in water ([3]; water) was “nearly or completely insoluble” and the solubility at 24 h ([4]; phosphate buffer solution pH 6.5) was 1860 µg/mL (≈ 7.29 mM). The solubility at 24 h ([4]; phosphate buffer solution pH 6.8) was 3030 µg/mL (≈ 11.9 mM), the solubility at 24 h ([4]; phosphate buffer solution pH 7.0) was 4090 µg/mL (≈ 16 mM) and the solubility at 24 h ([4]; phosphate buffer solution pH 7.2) was 4520 µg/mL (≈ 17.7 mM). For the same compound, the solubility at 24 h ([4]; phosphate buffer solution pH 7.4) was 4720 µg/mL (≈ 18.5 mM), the solubility at 24 h ([4]; phosphate buffer solution pH 7.6) was 5220 µg/mL (≈ 20.4 mM) and the solubility at 24 h ([4]; phosphate buffer solution pH 7.8) was ≥ 24200 µg/mL. It also gave a clearance [2, 6] of 3.22 mL/min/kg, a Vd [2, 6] of 1.29 ± 0.432 L/kg and a clearance [2, 7] of 0.472 mL/min/kg. The Vd [2, 7] was 0.391 L/kg, the AUC(0-inf) [2, 6] was 950 ± 385 ng·h/mL and the AUC(0-t) [2, 6] was 545 ± 147 ng·h/mL. It also gave a half-life [2, 6] of 7.13 ± 2.93 h, an MRT last [2, 6] of 1.61 ± 0.4 h and an AUC(0-inf) [2, 7] of 117000 ± 25900 ng·h/mL. It also gave an AUC(0-t) [2, 7] of 41600 ± 3540 ng·h/mL, a half-life [2, 7] of 10.3 ± 2.18 h and an MRT last [2, 7] of 2.5 ± 0.149 h. The Vd (in vivo; 0.24 mg/kg) was 0.224 ± 0.0778 L/kg, the clearance (in vivo; 0.24 mg/kg) was 1.77 mL/min/kg and the Vd (in vivo; 2.4 mg/kg) was 0.18 ± 0.0381 L/kg. The clearance (in vivo; 2.4 mg/kg) was 1.7 mL/min/kg, the Isomer purity determined ([5]; phosphate buffer pH 6.5, 25° C., Day 2) was 0.20% and the Isomer purity determined ([5]; phosphate buffer pH 6.5, 25° C., Day 30) was 3.43%. The Isomer purity determined ([5]; phosphate buffer pH 6.5, 40° C., Day 30) was 27.90%, the Isomer purity determined ([5]; phosphate buffer pH 6.8, 25° C., Day 2) was 0.21% and the Isomer purity determined ([5]; phosphate buffer pH 6.8, 25° C., Day 30) was 3.22%. For the same compound, the Isomer purity determined ([5]; phosphate buffer pH 6.8, 40° C., Day 30) was 28.14%, the Isomer purity determined ([5]; phosphate buffer pH 7.0, 25° C., Day 2) was 0.22% and the Isomer purity determined ([5]; phosphate buffer pH 7.0, 25° C., Day 30) was 3.20%. The Isomer purity determined ([5]; phosphate buffer pH 7.0, 40° C., Day 30) was 27.11%, the Isomer purity determined ([5]; phosphate buffer pH 7.2, 25° C., Day 2) was 0.22% and the Isomer purity determined ([5]; phosphate buffer pH 7.2, 25° C., Day 30) was 3.34%. It also gave an Isomer purity determined ([5]; phosphate buffer pH 7.2, 40° C., Day 30) of 27.71%, an Isomer purity determined ([5]; phosphate buffer pH 7.4, 25° C., Day 2) of 0.21% and an Isomer purity determined ([5]; phosphate buffer pH 7.4, 25° C., Day 30) of 3.31%. For the same compound, the Isomer purity determined ([5]; phosphate buffer pH 7.4, 40° C., Day 30) was 23.91%, the Isomer purity determined ([5]; phosphate buffer pH 7.6, 25° C., Day 2) was 0.22% and the Isomer purity determined ([5]; phosphate buffer pH 7.6, 25° C., Day 30) was 3.43%. It also gave an Isomer purity determined ([5]; phosphate buffer pH 7.6, 40° C., Day 30) of 24.35%, an Isomer purity determined ([5]; phosphate buffer pH 7.8, 25° C., Day 2) of 0.51% and an Isomer purity determined ([5]; phosphate buffer pH 7.8, 25° C., Day 30) of 4.92%. The Isomer purity determined ([5]; phosphate buffer pH 7.8, 40° C., Day 30) was 21.28% and the “optical purity of (S)-ketorolac” value ([5]; samples in the solution state (phosphate buffer), stored at 25° C. for one month) was “greater than or equal to 95%”.
